Test results published in patent publication US20260130933A1, “PHARMACEUTICAL COMPOSITION FOR PREVENTION OR TREATMENT OF NEPHROPATHY AND/OR DIABETES MELLITUS, COMPRISING ENAVOGLIFLOZIN” (DAEWOONG PHARMACEUTICAL CO., LTD., priority 2022, published 2026).

Test: Example 1: phase 3 trial, enavogliflozin 0.3 mg once a day as monotherapy vs placebo for 24 weeks in patients with type 2 diabetes (HbA1c, FPG, C-peptide, body weight, lipids, blood pressure, HOMA, UACR, UGCR, adiponectin, leptin, safety)
Type: in vivo, human
Conditions: for Change from baseline in HOMA-IR, ANCOVA LS mean difference / Change from baseline in HOMA-β, ANCOVA LS mean difference / Change from baseline in UACR, ANCOVA LS mean difference / Change from baseline in UGCR, ANCOVA LS mean difference / Change from baseline in adiponectin, ANCOVA LS mean difference / Change from baseline in leptin, ANCOVA LS mean difference: 0.3 mg vs placebo
Procedure: When a subject voluntarily gave written consent to participate in this clinical trial, a screening test was conducted. […] However, when the administration of a hypoglycemic agent was interrupted before the clinical trial Visit 1 (screening), at least an 8-week washout period, including the discontinuation period, was required, and during this period, a stable diet and exercise program was followed. Naïve patients were screened without a separate washout period, and the criteria for naïve patients were defined as patients who had not been administered hypoglycemic agents within 24 weeks prior to the date of obtaining written consent. […] In addition, they were instructed to maintain regular exercise and dietary control starting from 8 weeks prior to screening without changing their daily life patterns during the clinical trial period.

[1] = Week 18, LOCF, full analysis set, 0.3 mg
[2] = Week 18, LOCF, full analysis set
[3] = Week 24, LOCF, full analysis set, 0.3 mg
[4] = Week 24, LOCF, full analysis set

## OC[C@H]1O[C@@H](c2cc(Cc3ccc(C4CC4)cc3)c(Cl)c3c2CCO3)[C@H](O)[C@@H](O)[C@@H]1O [Enavogliflozin, (2S,3R,4R,5S,6R)-2-(7-chloro-6 (4-cyclopropylbenzyl)-2,3-dihydrobenzofuran-4-yl)-6-(hydroxymethyl)tetrahydro-2H-pyran-3,4,5-triol]
[1]
  Change from baseline in HOMA-IR, Median: −1.10
  Change from baseline in HOMA-β, ANCOVA LS mean (SE): 28.64
  Change from baseline in HOMA-β, Mean (SD): 23.65
  Change from baseline in HOMA-β, Median: 5.95
  Change from baseline in UACR, ANCOVA LS mean (SE): -5.53 g/kg
  Change from baseline in UACR, Mean (SD): -8720 mg/kg
  Change from baseline in UACR, Median: -0.75 g/kg
  Change from baseline in UGCR, ANCOVA LS mean (SE): 51.70 mg/mg
  Change from baseline in UGCR, Mean (SD): 50.96 mg/mg
  Change from baseline in UGCR, Median: 54.29 mg/mg
  Change from baseline in adiponectin, ANCOVA LS mean (SE): 0.97 µg/mL
  Change from baseline in adiponectin, Mean (SD): 0.83 µg/mL
  Change from baseline in adiponectin, Median: 0.61 µg/mL
  Change from baseline in leptin, ANCOVA LS mean (SE): -2.70 ng/mL
  Change from baseline in leptin, Mean (SD): -2.20 ng/mL
  Change from baseline in leptin, Median: -1.21 ng/mL
  HOMA-IR, Mean (SD): 1.99
  HOMA-IR, Median: 1.51
  HOMA-β, Mean (SD): 70.05
  HOMA-β, Median: 43.85
  Leptin, Mean (SD): 8.96 ng/mL
  Leptin, Median: 6.05 ng/mL
  UACR, Mean (SD): 19480 mg/kg
  UACR, Median: 10.50 g/kg
  UGCR, Mean (SD): 52.38 mg/mg
  UGCR, Median: 54.51 mg/mg
[2]
  Change from baseline in HOMA-IR, ANCOVA LS mean difference: −1.49
  Change from baseline in HOMA-β, ANCOVA LS mean difference: 22.40
  Change from baseline in UACR, ANCOVA LS mean difference: -13.39 g/kg
  Change from baseline in UGCR, ANCOVA LS mean difference: 47.66 mg/mg
  Change from baseline in adiponectin, ANCOVA LS mean difference: 1.04 µg/mL
  Change from baseline in leptin, ANCOVA LS mean difference: -2.36 ng/mL
[3]
  Adiponectin, Mean (SD): 9.07 µg/mL
  Adiponectin, Median: 7.57 µg/mL
  Change from baseline in HOMA-IR, ANCOVA LS mean (SE): −1.57
  Change from baseline in HOMA-IR, Mean (SD): −1.52
  Change from baseline in HOMA-IR, Median: −0.99
  Change from baseline in HOMA-β, ANCOVA LS mean (SE): 7.97
  Change from baseline in HOMA-β, Mean (SD): 8.24
  Change from baseline in HOMA-β, Median: 6.10
  Change from baseline in UACR, ANCOVA LS mean (SE): -4.31 g/kg
  Change from baseline in UACR, Mean (SD): -6750 mg/kg
  Change from baseline in UACR, Median: -0.15 g/kg
  Change from baseline in UGCR, ANCOVA LS mean (SE): 49.76 mg/mg
  Change from baseline in UGCR, Mean (SD): 48.97 mg/mg
  Change from baseline in UGCR, Median: 50.09 mg/mg
  Change from baseline in adiponectin, ANCOVA LS mean (SE): 1.25 µg/mL
  Change from baseline in adiponectin, Mean (SD): 1.28 µg/mL
  Change from baseline in adiponectin, Median: 1.08 µg/mL
  Change from baseline in leptin, ANCOVA LS mean (SE): -2.36 ng/mL
  Change from baseline in leptin, Mean (SD): -2.07 ng/mL
  Change from baseline in leptin, Median: -0.84 ng/mL
  HOMA-IR, Mean (SD): 1.94
  HOMA-IR, Median: 1.58
  HOMA-β, Mean (SD): 54.64
  HOMA-β, Median: 46.65
  Leptin, Mean (SD): 9.09 ng/mL
  Leptin, Median: 6.89 ng/mL
  UACR, Mean (SD): 21440 mg/kg
  UACR, Median: 9.00 g/kg
  UGCR, Mean (SD): 50.40 mg/mg
  UGCR, Median: 50.80 mg/mg
[4]
  Change from baseline in HOMA-IR, ANCOVA LS mean difference: −1.94
  Change from baseline in HOMA-β, ANCOVA LS mean difference: 5.88
  Change from baseline in UACR, ANCOVA LS mean difference: -13.92 g/kg
  Change from baseline in UGCR, ANCOVA LS mean difference: 47.36 mg/mg
  Change from baseline in adiponectin, ANCOVA LS mean difference: 0.98 µg/mL
  Change from baseline in leptin, ANCOVA LS mean difference: -2.99 ng/mL
Week 6
  Body weight, Mean: 66.81 kg
  Diastolic blood pressure, Mean: 73.81 mmHg
  FPG change from baseline, LS mean (SE): −27.78(2.47) mg/dL
  FPG change from baseline, Mean (SD): −25.86(20.19) mg/dL
  FPG, Mean (SD): 115.19(14.55) mg/dL
  HDL-C change from baseline, LS mean: 2.40 mg/dL
  HDL-C change from baseline, Mean: 2.07 mg/dL
  HDL-C, Mean: 53.79 mg/dL
  HbA1c change from baseline, LS mean (SE): −0.67(0.05) % p
  HbA1c change from baseline, Mean (SD): −0.63(0.39) % p
  HbA1c, Mean (SD): 7.01(0.59) %
  LDL-C change from baseline, LS mean: 1.23 mg/dL
  LDL-C change from baseline, Mean: 1.55 mg/dL
  LDL-C, Mean: 96.18 mg/dL
  Subjects achieving HbA1c target of <6.5%: 12(14.81) %
  Subjects achieving HbA1c target of <7%: 40(49.38) %
  Subjects achieving therapeutic glycemic response (HbA1c change >0.5% or HbA1c<7%): 61(75.31) %
  Systolic blood pressure, Mean: 123.32 mmHg
  body weight change from baseline, LS mean: -2.03 kg
  body weight change from baseline, Mean: -2.05 kg
  diastolic blood pressure change from baseline, LS mean: −2.99 mmHg
  diastolic blood pressure change from baseline, Mean: −2.65 mmHg
